≈ marks a conversion by molar mass, not a printed value.
How the values were obtained:
Strep. pneumoniae CN33 = test: MIC by serial dilution in nutrient agar (human bacteria); settings: Streptococcus pneumoniae
M. gallisepticum S6 = test: Anti-mycoplasma MIC; format: cell-based; settings: Mycoplasmoides gallisepticum, S6
Staph. aureus 1517 = test: MIC by serial dilution in nutrient agar (human bacteria); format: cell-based; settings: Staphylococcus aureus
Strep. pyogenes C 2761 = test: as above; settings: Streptococcus pyogenes, C2761
M. pneumoniae 427a = test: Anti-mycoplasma MIC; format: cell-based; settings: Mycoplasmoides pneumoniae
M. dispar H225 = test: Anti-mycoplasma MIC; format: cell-based
Strep. pyogenes B 2788 = test: MIC by serial dilution in nutrient agar (human bacteria); settings: Streptococcus pyogenes, B2788
Strep. uberis SPU1 = test: MIC against veterinary bacteria; settings: Streptococcus uberis
Past. multocida 1633 = test: MIC by serial dilution in nutrient agar (human bacteria); settings: Pasteurella multocida
Bord. bronchiseptica BO8 = test: MIC against veterinary bacteria; settings: Bordetella bronchiseptica
Past. multocida PA2 = test: MIC against veterinary bacteria; settings: Pasteurella multocida
M. dispar NCTC 10125 = test: Anti-mycoplasma MIC; format: cell-based
M. pulmonis JB = test: Anti-mycoplasma MIC; format: cell-based; settings: Mycoplasmopsis pulmonis
[1] = test system: M. alkalescens NCTC 10135; test: Anti-mycoplasma MIC; format: cell-based
N. catarrhalis 1502 = test: MIC by serial dilution in nutrient agar (human bacteria); settings: Neisseria
M. suipneumoniae Str. 11 = test: Anti-mycoplasma MIC; format: cell-based; settings: Mesomycoplasma hyopneumoniae, STR.11
M. bovis ATCC 25025 = test: microbe, parasite or virus in culture; format: cell-based; settings: ATCC25025
Staph. aureus Russell = test: MIC by serial dilution in nutrient agar (human bacteria); settings: Staphylococcus aureus
B. subtilis = test: as above; settings: Bacillus subtilis
M. synoviae ATCC 25204 = test: Anti-mycoplasma MIC; format: cell-based; settings: Mycoplasmopsis synoviae, ATCC25204
[2] = test system: M. arthritidis ATCC 14124; test: Anti-mycoplasma MIC; format: cell-based
Bord. bronchiseptica BO9 = test: MIC against veterinary bacteria; settings: Bordetella bronchiseptica
Strep. dysgalactiae SPD1 = test: MIC against veterinary bacteria; settings: Streptococcus dysgalactiae
M. pneumoniae ATCC 15492 = test: Anti-mycoplasma MIC; format: cell-based; settings: Mycoplasmoides pneumoniae, ATCC15492, M. pneumoniae ATCC 15492
Past. multocida PA1 = test: MIC against veterinary bacteria; settings: Pasteurella multocida
Strep. pyogenes A 64/848 = test: MIC by serial dilution in nutrient agar (human bacteria); settings: Streptococcus pyogenes, A64/848
M. hyorhinis ATCC 23234 = test: Anti-mycoplasma MIC; format: cell-based; settings: Mesomycoplasma hyorhinis, ATCC23234
[3] = test system: M. bovigenitalium ATCC 14173; test: Anti-mycoplasma MIC; format: cell-based
M. fermentans MWKL4 = test: Anti-mycoplasma MIC; format: cell-based; settings: Mycoplasmopsis fermentans
[4] = test system: Staph. aureus B4 (pen resistant); test: MIC against veterinary bacteria; settings: Staphylococcus aureus
H. influenzae Wy21 = test: MIC by serial dilution in nutrient agar (human bacteria); settings: Haemophilus influenzae
Past. haemolytica PA5 = test: MIC against veterinary bacteria; settings: Mannheimia haemolytica
[5] = test system: M. hyosynoviae ATCC 25591; test: Anti-mycoplasma MIC; format: cell-based
Strep. agalactiae SPA1 = test: MIC against veterinary bacteria; settings: Streptococcus agalactiae
Staph. aureus Oxford = test: MIC by serial dilution in nutrient agar (human bacteria); settings: Staphylococcus aureus
M. bovis NCTC 10131 = test: microbe, parasite or virus in culture; format: cell-based; settings: NCTC10131
H. influenzae Q1 = test: MIC by serial dilution in nutrient agar (human bacteria); settings: Haemophilus influenzae
[6] = test system: M. suipneumoniae J2206/183b; test: Anti-mycoplasma MIC; format: cell-based; settings: Mesomycoplasma hyopneumoniae, J2206/183B
[7] = Agar (serial dilution in Friis' agar)
[8] = Broth (Friis' broth, microtiter method)

## CCOC(=O)/C=C(\C)CC1OCC(C/C=C/C(C)C(C)O)C(O)C1O (stereo not drawn) [Ethyl, Ethyl Monate C]
Strep. pneumoniae CN33
  MIC: 2.5 µg/mL (≈ 7.01 µM)
M. gallisepticum S6
  MIC: > 10 µg/mL
Staph. aureus 1517
  MIC: 0.2 µg/mL (≈ 0.561 µM)
Strep. pyogenes C 2761
  MIC: 5 µg/mL (≈ 14 µM)
M. pneumoniae 427a; [7]
  MIC: 5 µg/mL (≈ 14 µM)
M. pneumoniae 427a; [8]
  MIC: 10 µg/mL (≈ 28.1 µM)
M. dispar H225
  MIC: 0.078 µg/mL (≈ 0.219 µM)
Strep. pyogenes B 2788
  MIC: 0.5 µg/mL (≈ 1.4 µM)
Strep. uberis SPU1
  MIC: 5 µg/mL (≈ 14 µM)
Past. multocida 1633
  MIC: 5 µg/mL (≈ 14 µM)
Bord. bronchiseptica BO8
  MIC: > 80 µg/mL
Past. multocida PA2
  MIC: 5 µg/mL (≈ 14 µM)
M. dispar NCTC 10125
  MIC: 0.156 µg/mL (≈ 0.438 µM)
M. pulmonis JB; [7]
  MIC: 0.039 µg/mL (≈ 0.109 µM)
M. pulmonis JB; [8]
  MIC: 0.156 µg/mL (≈ 0.438 µM)
[1]
  MIC: 0.039 µg/mL (≈ 0.109 µM)
N. catarrhalis 1502
  MIC: 0.2 µg/mL (≈ 0.561 µM)
M. suipneumoniae Str. 11
  MIC: 1.25 µg/mL (≈ 3.51 µM)
M. bovis ATCC 25025
  MIC: 0.156 µg/mL (≈ 0.438 µM)
Staph. aureus Russell
  MIC: 0.2 µg/mL (≈ 0.561 µM)
B. subtilis
  MIC: 1 µg/mL (≈ 2.81 µM)
M. synoviae ATCC 25204
  MIC: 0.039 µg/mL (≈ 0.109 µM)
[2]
  MIC: > 10 µg/mL
Bord. bronchiseptica BO9
  MIC: 40 µg/mL (≈ 112 µM)
Strep. dysgalactiae SPD1
  MIC: 20 µg/mL (≈ 56.1 µM)
M. pneumoniae ATCC 15492; [7]
  MIC: 5 µg/mL (≈ 14 µM)
M. pneumoniae ATCC 15492; [8]
  MIC: 10 µg/mL (≈ 28.1 µM)
Past. multocida PA1
  MIC: 5 µg/mL (≈ 14 µM)
Strep. pyogenes A 64/848
  MIC: 10 µg/mL (≈ 28.1 µM)
M. hyorhinis ATCC 23234
  MIC: 2.5 µg/mL (≈ 7.01 µM)
[3]
  MIC: 0.078 µg/mL (≈ 0.219 µM)
M. fermentans MWKL4; [7]
  MIC: 0.312 µg/mL (≈ 0.875 µM)
M. fermentans MWKL4; [8]
  MIC: 0.156 µg/mL (≈ 0.438 µM)
[4]
  MIC: 1.25 µg/mL (≈ 3.51 µM)
H. influenzae Wy21
  MIC: 1 µg/mL (≈ 2.81 µM)
Past. haemolytica PA5
  MIC: 40 µg/mL (≈ 112 µM)
[5]
  MIC: 1.25 µg/mL (≈ 3.51 µM)
Strep. agalactiae SPA1
  MIC: 20 µg/mL (≈ 56.1 µM)
Staph. aureus Oxford
  MIC: 0.2 µg/mL (≈ 0.561 µM)
M. bovis NCTC 10131
  MIC: 0.156 µg/mL (≈ 0.438 µM)
H. influenzae Q1
  MIC: 0.2 µg/mL (≈ 0.561 µM)
[6]
  MIC: 10 µg/mL (≈ 28.1 µM)

Source: patent US4248887A, “Antibacterial compounds, processes for their preparation and compositions containing them” (priority 1978, dated 1981)
